Measurements taken from US20050090506A1, “Insecticidal perfluoroalkylthiazole derivatives” (Nippon Soda Co., Ltd., priority 2003, published 2005).

Compared with `CCOC(=O)c1sc(NC(=O)c2ccc(C)cc2)nc1C(F)(F)C(F)(F)F` [Compound 2, N-(5-Ethoxycarbonyl-4-pentafluoroethylthiazol-2-yl)-4-methylbenzamide], `CCOC(=O)c1sc(NC(=O)c2cc(C(F)(F)F)cc(C(F)(F)F)c2)nc1C(F)(F)C(F)(F)F` [Compound 68, N-(5-Ethoxycarbonyl-4-pentafluoroethylthiazol-2-yl)-3,5-bis-trifluoromethylbenzamide] is lower in melting point: 202 to 203 °C for the first, 154 to 155 °C for the second.

Molecule `O=C(Nc1nc(C(F)(F)C(F)(F)F)c(CCl)s1)c1cc(C(F)(F)F)cc(C(F)(F)F)c1` [Compound 47, N-(5-chloromethyl-4-pentafluoroethylthiazol-2-yl)-3,5-bis-trifluoromethylbenzamide] has a melting point of 133 to 134 °C.
